Data set [1] has as its system P. falciparum (K1 strain). Briefly: Drug sensitivity test (SYBR Green I), P. falciparum K1 strain. Format: cell-based, Plasmodium falciparum.
Details of data set [2]: method as in PMID 28061347. Particulars: metal-chelating activity; cited from earlier work.
In data set [3] the test system is healthy human PBMCs. Briefly: MTT toxicity study in peripheral blood mononuclear cells.
Details of data set [4]: method as in PMID 28061347. Particulars: read-out: IC50, antioxidant activity; cited from earlier work.
The test system of data set [5] is P. falciparum (3D7 strain). The data set can be described thus: Drug sensitivity test (SYBR Green I), P. falciparum 3D7 strain. Format: cell-based, Plasmodium falciparum. Particulars: for IC50: read-out: Absolute IC50 Value, P. falciparum (3D7 Strain).
The test system of data set [6] is Aβ1–42. On the set-up: method as in PMID 28061347. Particulars: read-out: IC50, Cu2+/Fe3+-induced Aβ1–42 aggregation; cited from earlier work.
Data set [7] deals with labile iron pools in P. falciparum-infected red blood cells (PRBCs). The data set can be described thus: Labile iron pool (LIP) in P. falciparum-infected RBC, calcein quenching, flow cytometry. Format: cell-based, Plasmodium falciparum. Particulars: for effect on MFI values of PRBCs (LIP content): 25–200 µM, calcein fluorescence, higher MFI = less LIP.
Data set [8] has as its system P. falciparum. Particulars: read-out: IC50 against P. falciparum; cited from earlier work.
Details of data set [9]: method as in PMID 32208614. Particulars: cited from earlier work.
The nature of data set [10]: Partition coefficient (Po/w), 1-octanol/water system. Particulars: mean ± SD of three repetitions.
Data set [11] concerns P. falciparum. On the set-up: method as in PMID 23266185. Particulars: read-out: IC50 against P. falciparum; cited from earlier work.
For data set [12] the following is noted: cited from earlier work.
On the set-up of data set [13]: method as in PMID 26424148. Particulars: cited from earlier work.
For data set [14], the system named is normal cell line. Particulars: read-out: IC50, normal cell line; cited from earlier work.
For data set [15], the system named is P. falciparum. On the set-up: method as in PMID 26424148. Particulars: read-out: IC50, inhibition of P. falciparum growth; cited from earlier work.
Where [16] appears, read: Plasmodium falciparum, K1, 48 h, read-out: Absolute IC50 Value, P. falciparum (K1 Strain), PYR-resistant K1, 48 h, monotherapy.
[17] abbreviates: Plasmodium falciparum, 3D7, 48 h.

This is an account of results in article PMC8271877, “Identifying a Deferiprone–Resveratrol Hybrid as an Effective Lipophilic Anti-Plasmodial Agent” (Molecules, 2021).

Each structure is given as a SMILES string. Entries after “also recorded” stand apart in the source; their conditions may differ. Read-outs that look alike come from different tables or passages of the source.

As to `Cn1cc(O)c(=O)cc1C=Cc1cc(O)cc(O)c1` [DFP-RVT, 2-(3,5-dihydroxystyryl)-5-hydroxy-1-methylpyridin-4(1H)-one], in data set [1] (DFP-RVT (0–15 µM) with 75 µM PYR, 48 h), the “anti-malarial activity of combined treatment with PYR, K1 strain” value is reported as “significantly enhanced the anti-malarial activity; also recorded: additive effects”. Besides, the IC50 in data set [1] (setting [16]) is 13.4 µM; in data set [1] (read-out: Absolute IC50 Value, P. falciparum (K1 Strain), PYR-resistant K1, 48 h, monotherapy) it was 14 µM; in data set [4], 1730 nM; in [5] (setting [17]), 16.8 µM; in data set [6], 10.7 µM. Moreover, the “pFe(III)” value in data set [2] is listed as 19.6. The “toxicity to PBMCs” value in data set [3] (200 µM, 48 h of incubation) is “slightly toxic”; in [3] (25–200 µM, 24 h of incubation), “not found to be toxic”. Moreover, in data set [3] (concentrations up to 200 µM), the “toxicity to PBMCs (words, summary)” value is “nontoxic to blood mononuclear cells”. For the same compound, the “anti-malarial activity of combined treatment with PYR, 3D7 strain” value in [5] (DFP-RVT 5–15 µM with 25 nM PYR, 48 h) is given as “significant level of enhancement of anti-malarial activity; also recorded: additive effects”. Also, the “effect on MFI values of PRBCs (LIP content)” value in data set [7] is given as “significantly increased the MFI values”. Further, the “reduction in LIP levels in PRBCs compared with DFP (∆MFI)” value in [7] (equal concentrations) is recorded as “more effective than conventional DFP at equal concentrations”.
In the case of `Cc1c(O)c(=O)ccn1C` [DFP, 1,2-dimethyl-3-hydroxypyridin-4-one], the IC50 in data set [1] (setting [16]) was 42 µM; in [8], 15 µM; in [11], 67 µM; in data set [5] (setting [17]), 47.7 µM; in [14], greater than 200 µM; in [15], 58.2 µM. Further, the “pFe(III)” value in [2] is reported as 20.6. Moreover, the “iron-mobilizing efficacy in rats” value in [9] was 11.8%. Besides, in data set [10], the “Po/w Values (partition coefficient)” value amounted to 0.18 ± 0.06. The “log Po/w values for free ligands” value in data set [12] is −0.77. In addition, the “log Po/w values for [Fe-L3]” value in [12] (iron complex) is given as −2.6. For the same compound, the Kpart in [13] is 0.17. In data set [7], the “effect on MFI values of PRBCs (LIP content)” value was “significantly increased the MFI values”.
`Cc1c(C)c2c(c(C)c1O)CCC(C)(C(=O)O)O2` (stereo not shown) [Trolox]: the IC50 in [4] is 3890 nM.
In the case of `COCCOCCOCCOc1cccc(C2=N[C@@](C)(C(=O)O)CS2)c1O` [DADFT-PE, (S)3″-(HO)-desazadesferrithiocin-polyether], the IC50 in [8] is 6 µM.
As for `COc1cc(/C=C/C(=O)CC(=O)/C=C/c2ccc(O)c(OC)c2)ccc1O` [curcumin], the IC50 in data set [6] was 18.7 µM.
For the compound `CC(=O)N(O)CCCCCNC(=O)CCC(=O)N(O)CCCCCNC(=O)CCC(=O)N(O)CCCCCN` [DFO, desferrioxamine], the IC50 in [8] was 30 µM.
Consider `CCc1nc(N)nc(N)c1-c1ccc(Cl)cc1` [PYR, pyrimethamine], for which the IC50 in data set [1] (PYR-resistant K1, 48 h, monotherapy, read-out: Absolute IC50 Value, P. falciparum (K1 Strain)) was determined as 106 µM; in data set [1] (Plasmodium falciparum, K1, 48 h, PYR-resistant K1, 48 h, monotherapy, read-out: Absolute IC50 Value, P. falciparum (K1 Strain)) it was 106 µM; in data set [5] (PYR-sensitive wild-type 3D7, 48 h, monotherapy) it was 0.05 µM; in [5] (Plasmodium falciparum, 3D7, 48 h, PYR-sensitive wild-type 3D7, 48 h, monotherapy) it was 0.046 µM.
On to `Oc1ccc(/C=C/c2cc(O)cc(O)c2)cc1` [RVT, 3,5,4′-trihydroxy-trans-stilbene], for which the IC50 in [6] was 11.9 µM.
Take `CC(=O)NCCCCCCn1ccc(=O)c(O)c1C` [CM1, 1-(N-acetyl-6-aminohexyl)-3-hydroxy-2-methylpyridin-4-one]: the Kpart in data set [13] is given as 0.53. In addition, the IC50 in data set [15] is 35.1 µM.
